Assay results reported in patent US8716242B2, “β-hairpin peptidomimetics” (priority 2009, dated 2014).
Numbered stars: 1 amine (or outer) side, 2 acyl side, 3 side chain; on linkers, the order of the positions; unused ones are H or OH. Bridge positions count the residues as written; N and C are the ends. Square brackets hold non-standard residues; d marks the D form. Side chains are listed from the residue outwards. Peptide text beside a SMILES is read from it. * marks the point of attachment. γGlu = O=C(O)[C@H](CCC(=O)[*:2])N[*:1]; Palmitoyl = CCCCCCCCCCCCCCCC(=O)*; Myristoyl = CCCCCCCCCCCCCC(=O)*; Lauroyl = CCCCCCCCCCCC(=O)*; Dab = NCC[C@H](N)C(=O)O

Tests used:
[1] = Plasma stability in mouse plasma; type: in vitro ADME; settings: mouse plasma, 37° C.; for remaining at 24 h, 10 μM: 1440 min, read-out: mouse pl. cpd left at 1440 min
Summary of the method: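 Peptides (1 mM DMSO/H2O stock) were spiked into human or mouse plasma in triplicate and incubated at 37 °C, sampling from 0 to 1440 min. Samples were quenched in formic acid/acetonitrile and analysed by LC/MS MRM. Remaining percent of t=0 was calculated and T1/2 derived by trend fitting.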

human CXCR4 = biological target: T1, human CXCR4 (Homo sapiens, UniProt P61073); test: Ca2+-assay: CXCR4-antagonizing activity (SDF-1 induced calcium mobilization); type: cell-based; settings: mouse pre-B cell line 300-19 transfected with human CXCR4; SDF-1 induced Ca2+ mobilization; read-out: IC50% [nM] ± SD, CXCR4 receptor
T1 construct: expressed in transfected cells; host or cells: mouse pre-B cell line 300-19
T1 sequence (P61073 whole entry): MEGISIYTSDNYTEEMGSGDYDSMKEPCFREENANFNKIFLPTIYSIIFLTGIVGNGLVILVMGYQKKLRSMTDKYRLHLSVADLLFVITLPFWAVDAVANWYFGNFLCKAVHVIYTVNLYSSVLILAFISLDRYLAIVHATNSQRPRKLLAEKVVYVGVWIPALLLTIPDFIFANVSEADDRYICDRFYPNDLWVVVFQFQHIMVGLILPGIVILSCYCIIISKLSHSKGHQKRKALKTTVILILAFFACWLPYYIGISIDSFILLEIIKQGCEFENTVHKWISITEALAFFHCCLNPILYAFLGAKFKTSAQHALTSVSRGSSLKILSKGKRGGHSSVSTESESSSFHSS
Summary of the method: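 Mouse pre-B 300-19 cells stably expressing human CXCR4, loaded with Calcium 4 dye in HBSS/20 mM HEPES pH 7.4/0.1% BSA for 1 h at RT. Peptides added before SDF-1; fluorescence (ex 485/em 525 nm) followed for 90 s. IC50 from four-parameter logistic fit of % maximal SDF-1 response.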

Row | Structure (SMILES) | remaining at 24 h, 10 μM [1] | half-life at 10 μM ([1]; up to 1440 min, read-out: mouse pl. T1/2) | IC50 (human CXCR4) | mouse pl. T1/2 ([1]; up to 1440 min)
1 | CCCCCCCCCCCC(=O)NCCCC[C@@H]1NC(=O)[C@H](Cc2ccc(O)cc2)NC(=O)[C@@H]2CSSC[C@H](NC(=O)[C@H](C)NC(=O)[C@H](Cc3c[nH]cn3)NC(=O)[C@H](Cc3ccc(O)cc3)NC(=O)[C@@H]3CCCN3C(=O)[C@H]3CCCN3C(=O)[C@H](CCCCN)NC1=O)C(=O)N[C@@H](CCCNC(=N)N)C(=O)N[C@@H](C)C(=O)N1CCC[C@@H]1C(=O)N[C@@H](CCN)C(=O)N[C@@H](CCCNC(=N)N)C(=O)N[C@@H](Cc1ccc(O)cc1)C(=O)N2 [Ex. 17] (cyclo(YHACRA[dP][Dab]RYCYK(Lauroyl)K[dP]P); disulfide 4-11) | 59% | 19.5 h | 2.8 ± 0.4 nM | –
2 | CCCCCCCCCCCCCCCC(=O)NCCCC[C@@H]1NC(=O)[C@H](Cc2ccc(O)cc2)NC(=O)[C@@H]2CSSC[C@H](NC(=O)[C@H](Cc3ccc(O)cc3)NC(=O)[C@H](Cc3c[nH]cn3)NC(=O)[C@H](Cc3ccc(O)cc3)NC(=O)[C@@H]3CCCN3C(=O)[C@H]3CCCN3C(=O)[C@H](CCCCN)NC1=O)C(=O)N[C@@H](CO)C(=O)N[C@@H](C)C(=O)N1CCC[C@@H]1C(=O)N[C@@H](CCN)C(=O)N[C@@H](CCCNC(=N)N)C(=O)N[C@@H](Cc1ccc(O)cc1)C(=O)N2 [Ex. 20] (cyclo(YHYCSA[dP][Dab]RYCYK(Palmitoyl)K[dP]P); disulfide 4-11) | 83% | – | 4 ± 1.8 nM | 24 h
3 | CCCCCCCCCCCC(=O)N[C@@H](CCC(=O)NCCCC[C@@H]1NC(=O)[C@H](Cc2ccc(O)cc2)NC(=O)[C@@H]2CSSC[C@H](NC(=O)[C@H](Cc3ccc(O)cc3)NC(=O)[C@H](Cc3c[nH]cn3)NC(=O)[C@H](Cc3ccc(O)cc3)NC(=O)[C@@H]3CCCN3C(=O)[C@H]3CCCN3C(=O)[C@H](CCCCN)NC1=O)C(=O)N[C@@H](CO)C(=O)N[C@@H](C)C(=O)N1CCC[C@@H]1C(=O)N[C@@H](CCN)C(=O)N[C@@H](CCCNC(=N)N)C(=O)N[C@@H](Cc1ccc(O)cc1)C(=O)N2)C(=O)O [Ex. 25] (cyclo(YHYCSA[dP][Dab]RYCYK([γGlu-Lauroyl])K[dP]P); disulfide 4-11) | 74% | – | 3.5 ± 0.1 nM | 24 h
4 | CCCCCCCCCCCC(=O)N[C@@H](CCC(=O)NCCCC[C@@H]1NC(=O)[C@H](Cc2ccc(O)cc2)NC(=O)[C@@H]2CSSC[C@H](NC(=O)[C@H](C)NC(=O)[C@H](Cc3c[nH]cn3)NC(=O)[C@H](Cc3ccc(O)cc3)NC(=O)[C@@H]3CCCN3C(=O)[C@H]3CCCN3C(=O)[C@H](CCCCN)NC1=O)C(=O)N[C@@H](CCCNC(=N)N)C(=O)N[C@@H](C)C(=O)N1CCC[C@@H]1C(=O)N[C@@H](CCN)C(=O)N[C@@H](CCCNC(=N)N)C(=O)N[C@@H](Cc1ccc(O)cc1)C(=O)N2)C(=O)O [Ex. 26] (cyclo(YHACRA[dP][Dab]RYCYK([γGlu-Lauroyl])K[dP]P); disulfide 4-11) | 65% | – | 2.4 ± 0.5 nM | 24 h
5 | CCCCCCCCCCCCCC(=O)N[C@@H](CCC(=O)NCCCC[C@@H]1NC(=O)[C@H](Cc2ccc(O)cc2)NC(=O)[C@@H]2CSSC[C@H](NC(=O)[C@H](Cc3ccc(O)cc3)NC(=O)[C@H](Cc3c[nH]cn3)NC(=O)[C@H](Cc3ccc(O)cc3)NC(=O)[C@@H]3CCCN3C(=O)[C@H]3CCCN3C(=O)[C@H](CCCCN)NC1=O)C(=O)N[C@@H](CO)C(=O)N[C@@H](C)C(=O)N1CCC[C@@H]1C(=O)N[C@@H](CCN)C(=O)N[C@@H](CCCNC(=N)N)C(=O)N[C@@H](Cc1ccc(O)cc1)C(=O)N2)C(=O)O [Ex. 28] (cyclo(YHYCSA[dP][Dab]RYCYK([γGlu-Myristoyl])K[dP]P); disulfide 4-11) | 78% | – | 2.1 ± 0.1 nM | 24 h
6 | CCCCCCCCCCCCCCCC(=O)N[C@@H](CCC(=O)NCCCC[C@@H]1NC(=O)[C@H](Cc2ccc(O)cc2)NC(=O)[C@@H]2CSSC[C@H](NC(=O)[C@H](Cc3ccc(O)cc3)NC(=O)[C@H](Cc3c[nH]cn3)NC(=O)[C@H](Cc3ccc(O)cc3)NC(=O)[C@@H]3CCCN3C(=O)[C@H]3CCCN3C(=O)[C@H](CCCCN)NC1=O)C(=O)N[C@@H](CO)C(=O)N[C@@H](C)C(=O)N1CCC[C@@H]1C(=O)N[C@@H](CCN)C(=O)N[C@@H](CCCNC(=N)N)C(=O)N[C@@H](Cc1ccc(O)cc1)C(=O)N2)C(=O)O [Ex. 29] (cyclo(YHYCSA[dP][Dab]RYCYK([γGlu-Palmitoyl])K[dP]P); disulfide 4-11) | 53% | – | 1.9 ± 0.8 nM | 24 h
